From US7227020B2, “Azaindoles” (Aventis Pharma Limited, priority 1999, dated 2007)

Row | SMILES | melting point [°C]
1 | c1cncc(OCCCn2cc(-c3cc4nccnc4[nH]3)c3ccccc32)c1 [Example 6, 6-{1-[3-(Pyridin-3-yloxy)-propyl]-1H-indol-3-yl}-5H-pyrrolo[2,3-b]pyrazine] | 208 to 209
2 | COc1ccc2[nH]cc(-c3cc4nccnc4[nH]3)c2c1 [Example 11, 6-(5-Methoxy-1H-indol-3-yl)-5H-pyrrolo[2,3-b]pyrazine] | 268 to 271
3 | COc1ccc2c(c1)c(-c1cc3nccnc3[nH]1)cn2CC(=O)N1CCOCC1 [Example 12, 2-[5-Methoxy-3-(5H-pyrrolo[2,3-b]pyrazin-6-yl)-indol-1-yl]-1-morpholin-4-yl-ethanone] | 263 to 267
4 | Cn1cc(-c2cc3cccnc3[nH]2)c2cc(N)ccc21 [Example 18, 1-Methyl-3-(1H-pyrrolo[2,3-b]pyridin-2-yl)-1H-indol-5-ylamine] | 247 to 248
5 | CC(C)(C)c1ccc(-c2[nH]c3nccnc3c2CCCO)cc1 [Example 26, 3-[6-(4-tert-Butyl-phenyl)-5H-pyrrolo[2,3-b]pyrazin-7-yl]-propan-1-ol] | 187 to 189
6 | CCOC(=O)COc1cc(-c2cc3nccnc3[nH]2)ccc1OC [Example 27, [2-Methoxy-5-(5H-pyrrolo[2,3-b]pyrazin-6-yl)-phenoxy]acetic acid ethyl ester] | 183 to 184
